Results taken from publication PMC5908160, “Inhibition of sperm motility in male macaques with EP055, a potential non-hormonal male contraceptive” (PLoS ONE, 2018).

Tested on: rhesus macaque (Macaca mulatta) sperm
Test: Sperm motility in rhesus males after i.v. infusion of EP055
Assay type: in vivo
Text: Semen was collected by direct penile stimulation with a P-T Electronics Model 303 PTE 110 Volt AC stimulator equipped with electrocardiogram pad electrodes (10–35 V, 20 ms duration, 18 pulses/sec) as previously described. Semen was collected weekly for 3 weeks to establish baseline parameters for each male. Samples were inspected visually to determine sperm motility and suitability for the study. Sperm motility data from male 28106 presented in S1 Table is representative of pre-treatment samples. Immediately after collection, the seminal plug was separated from the liquefied fraction, placed into a cryovial, flash frozen in liquid nitrogen, and stored at -80C until evaluation for drug levels. Spermatozoa were prepared by centrifugation (7 min, 200 g) of the liquid portion of the ejaculate and resuspending the sperm pellet in TALP-HEPES medium containing 0.3% bovine serum albumin at 37°C. An aliquot was taken to determine concentration using a hemocytometer, percent motility and forward progression as previously described. Baseline semen samples were collected from each male twice during the week prior to treatment. Semen was collected from each male 6–8 hr, 28–30 hr, and 78 hr post-infusion of low dose EP055 (75–80 mg/kg body weight) intravenously. After a one-week recovery period, a baseline semen sample was obtained, and the following week semen samples were collected as described above after an intravenous infusion of high dose EP055 (125–130 mg/kg).
Sperm were diluted in TALP-HEPES medium containing 0.3% bovine serum albumin to achieve 50-100 sperm per field. Videos were taken using an iPhone 6s Plus positioned 12 inches from a Dell model E170Sc 17-inch LCD monitor (1280 x 1024 pixels at 60 Hz, 0.264 mm) attached to an Olympus CK40 inverted microscope using 20x magnification (10x objective). The video camera collected images at a resolution of 1080 x 1920 pixels at 30 frames per second and 401 ppi with a typical contrast ratio of 1300:1 for at least 8 seconds. The pixel size was 1.2 microns and the videos in .mp4 or .mov format. Videos were converted to .avi format using Any Video Converter (version 6.06, http://www.anvsoft.com/any-video-converter-free, Ultimate Media Solutions, AnvSoft Inc). These files were uncompressed using VirtualDub (version 1.10.2, http://www.virtualdub.org/).
Images were analyzed using the MTrackJ plug in (version 1.5.1, https://imagescience.org/meijering/software/mtrackj/) for ImageJ (1.51K, https://fiji.sc/). Briefly, files were imported as uncompressed .avi files, converted to greyscale and saved as .TIFF files. Each image was calibrated by measuring a representative sperm head (acrosomal apex to midpiece) using the Straight Edge Tool, using 5.18 microns as the standard length of a Macaca mulatta sperm head. Approximately 50 sperm per video were manually tracked for the entire length of the track and the mean curvilinear velocity of each track calculated using the MEASURE function. Tracks used in the final analysis were a minimum of 0.4 seconds.
Prior to infusion of EP055, each male was sedated with ketamine by the surgical staff at ONPRC and transported to the operating room. After positioning in dorsal recumbency, the male was intubated and placed under inhalant (isoflurane) anesthesia. Bilateral intravenous catheters were placed in cephalic veins, one for infusion and one for back-up. A percutaneous arterial line was placed in the right femoral artery for direct blood pressure measurement. Invasive blood pressure, heart rate, SpO2, and respirations were monitored by the surgical staff throughout the procedure. Initially, the low doses of EP055 in 5% DMSO-PBS 7.6 was infused by i.v. at 75-80 mg/kg, using a Medfusion 3500 pump (Smiths Medical, St. Paul, MN), and was started at a low flow rate (0.6mg/kg/min). In 3 of 4 males, a 5-10% increase in blood pressure and heart rate were noted within the first 2-3 minutes of infusion of EP055. […]

[1] = high dose 125–130 mg/kg, post-infusion
[2] = male 25854, high dose 125–130 mg/kg, 6 hrs post-iv
[3] = male 25854, high dose 125–130 mg/kg, 30 hrs post-iv
[4] = male 25854, high dose 125–130 mg/kg, 78 hrs post-iv
[5] = male 25854, high dose 125–130 mg/kg, 318 hrs post-iv
[6] = male 25854, high dose 125–130 mg/kg, 390 hrs post-iv
[7] = male 25854, high dose 125–130 mg/kg, 558 hrs post-iv
[8] = male 25854, low dose 75–80 mg/kg, 6 hrs post-iv
[9] = male 25854, low dose 75–80 mg/kg, 30 hrs post-iv
[10] = male 25854, low dose 75–80 mg/kg, 78 hrs post-iv
[11] = male 25854, low dose 75–80 mg/kg, 1206 hrs post-iv
[12] = male 25854, low dose 75–80 mg/kg, 1254 hrs post-iv
[13] = male 28043, high dose 125–130 mg/kg, 6 hrs post-iv
[14] = male 28043, high dose 125–130 mg/kg, 28 hrs post-iv
[15] = male 28043, high dose 125–130 mg/kg, 78 hrs post-iv
[16] = male 28043, high dose 125–130 mg/kg, 360 hrs post-iv
[17] = male 28043, high dose 125–130 mg/kg, 408 hrs post-iv
[18] = male 28043, high dose 125–130 mg/kg, 528 hrs post-iv
[19] = male 28043, low dose 75–80 mg/kg, 6 hrs post-iv
[20] = male 28043, low dose 75–80 mg/kg, 30 hrs post-iv
[21] = male 28043, low dose 75–80 mg/kg, 78 hrs post-iv
[22] = male 28043, low dose 75–80 mg/kg, 480 hrs post-iv
[23] = male 28043, low dose 75–80 mg/kg, 648 hrs post-iv
[24] = male 28106, high dose 125–130 mg/kg, 6 hrs post-iv
[25] = male 28106, high dose 125–130 mg/kg, 30 hrs post-iv
[26] = male 28106, high dose 125–130 mg/kg, 78 hrs post-iv
[27] = male 28106, high dose 125–130 mg/kg, 318 hrs post-iv
[28] = male 28106, high dose 125–130 mg/kg, 390 hrs post-iv
[29] = male 28106, high dose 125–130 mg/kg, 558 hrs post-iv
[30] = male 28106, high dose 125–130 mg/kg, 894 hrs post-iv
[31] = male 28106, low dose 75–80 mg/kg, 6 hrs post-iv
[32] = male 28106, low dose 75–80 mg/kg, 30 hrs post-iv
[33] = male 28106, low dose 75–80 mg/kg, 78 hrs post-iv
[34] = male 28106, low dose 75–80 mg/kg, 342 hrs post-iv
[35] = male 28187, high dose 125–130 mg/kg, 8 hrs post-iv
[36] = male 28187, high dose 125–130 mg/kg, 30 hrs post-iv
[37] = male 28187, high dose 125–130 mg/kg, 78 hrs post-iv
[38] = male 28187, high dose 125–130 mg/kg, 414 hrs post-iv
[39] = male 28187, low dose 75–80 mg/kg, 6 hrs post-iv
[40] = male 28187, low dose 75–80 mg/kg, 30 hrs post-iv
[41] = male 28187, low dose 75–80 mg/kg, 78 hrs post-iv
[42] = male 28187, low dose 75–80 mg/kg, 582 hrs post-iv
[43] = male 28187, low dose 75–80 mg/kg, 678 hrs post-iv

COC(=O)NNc1nc(Nc2ccc(NC(C)=O)c(O)c2)nc(SCC(=O)O)n1 [EP055]
normal motility (high dose 125–130 mg/kg, 30 hours post-infusion): no normal motility was observed
time at which recovery of sperm motility was obvious [1]: ≤ 78 h
time to full recovery of sperm motility in all animals [1]: ≤ 18 days
sperm motility (high dose 125–130 mg/kg, within 6 hours post-infusion, mean of 4 animals): approximately 20%
normal sperm motility (low dose 75–80 mg/kg, by 30 hours post-infusion, mean of 4 animals): below 32%
F1 [2]: 5%
F2 [2]: 80%
Static [2]: 15%
VCL ± SEM [2]: 104.6 ± 6.9 um/sec
Clumps [3]: Yes
F1 [3]: 10%
F2 [3]: 60%
Static [3]: 30%
VCL ± SEM [3]: 120.9 ± 4.8 um/sec
Clumps [4]: Few
F1 [4]: 20%
F2 [4]: 25%
Static [4]: 55%
VCL ± SEM [4]: 94.2 ± 5.0 um/sec
F1 [5]: 20%
F2 [5]: 20%
F3+F4 [5]: 10%
Static [5]: 50%
F1 [6]: 10%
F3+F4 [6]: 70%
Static [6]: 20%
VCL ± SEM [6]: 93.2 ± 5.0 um/sec
F1 [7]: 1%
F3+F4 [7]: 90%
Static [7]: 9%
Clumps [8]: Few
F1 [8]: 10%
F3+F4 [8]: 70%
Static [8]: 20%
Clumps [9]: Fewer
F1 [9]: 5%
F3+F4 [9]: 80%
Static [9]: 15%
Clumps [10]: Yes
F1 [10]: <1%
F3+F4 [10]: 95%
Static [10]: 5%
F1 [11]: 2%
F3+F4 [11]: 83%
Static [11]: 15%
F3+F4 [12]: 80%
Static [12]: 20%
Clumps [13]: Yes
F1 [13]: 25%
F3+F4 [13]: 50%
Static [13]: 25%
Clumps [14]: Yes
F1 [14]: 99%
F3+F4 [14]: <1%
VCL ± SEM [14]: 72.1 ± 12.4 um/sec
Clumps [15]: Few
F1 [15]: 10%
F3+F4 [15]: 60%
Static [15]: 30%
VCL ± SEM [15]: 117.5 ± 16.3. um/sec
F1 [16]: 10%
F3+F4 [16]: 65%
Static [16]: 25%
Clumps [17]: Yes
F1 [17]: 5%
F3+F4 [17]: 70%
Static [17]: 25%
F2 [18]: 5%
F3+F4 [18]: 80%
Static [18]: 15%
VCL ± SEM [18]: 135.0 ± 12.6 um/sec
Clumps [19]: Few
F3+F4 [19]: 75%
Static [19]: 25%
Clumps [20]: Yes
F1 [20]: 20%
F3+F4 [20]: 30%
Static [20]: 50%
Clumps [21]: Yes
F1 [21]: 20%
F2 [21]: 50%
Static [21]: 30%
F3+F4 [22]: 80%
Static [22]: 20%
F1 [23]: 5%
F3+F4 [23]: 80%
Static [23]: 15%
Clumps [24]: Yes
F1 [24]: 55%
F2 [24]: 25%
Static [24]: 20%
VCL ± SEM [24]: 72.8 ± 4.8 um/sec
Clumps [25]: Yes
F1 [25]: 20%
F2 [25]: 5%
Static [25]: 75%
VCL ± SEM [25]: 67.5 ± 7.9 um/sec
Clumps [26]: Yes
F1 [26]: 15%
F2 [26]: 20%
F3+F4 [26]: 10%
Static [26]: 55%
VCL ± SEM [26]: 80.3 ± 6.9 um/sec
Clumps [27]: Yes
F1 [27]: 30%
F2 [27]: 20%
F3+F4 [27]: 25%
Static [27]: 25%
Clumps [28]: Yes
F1 [28]: 15%
F2 [28]: 10%
F3+F4 [28]: 50%
Static [28]: 25%
Clumps [29]: Yes
F1 [29]: 15%
F2 [29]: 40%
F3+F4 [29]: 15%
Static [29]: 30%
F1 [30]: 2%
F3+F4 [30]: 78%
Static [30]: 20%
VCL ± SEM [30]: 101.7 ± 4.1 um/sec
Clumps [31]: Yes
F1 [31]: 20%
F3+F4 [31]: 50%
Static [31]: 30%
VCL ± SEM [31]: 135.8 ± 6.8 um/sec
Clumps [32]: Yes
F1 [32]: 25%
F2 [32]: 45%
F3+F4 [32]: 5%
Static [32]: 25%
VCL ± SEM [32]: 105.1 ± 7.0 um/sec
Clumps [33]: Yes
F1 [33]: 30%
F2 [33]: 40%
Static [33]: 30%
VCL ± SEM [33]: 89.7 ± 6.3 um/sec
F1 [34]: 5%
F3+F4 [34]: 80%
Static [34]: 15%
VCL ± SEM [34]: 105.0 ± 5.8 um/sec
Clumps [35]: Yes
F1 [35]: 10%
F2 [35]: 50%
F3+F4 [35]: 30%
Static [35]: 10%
VCL ± SEM [35]: 52.9 ± 3.0 um/sec
Clumps [36]: Yes
F1 [36]: 10%
F2 [36]: 80%
Static [36]: 10%
VCL ± SEM [36]: 40.5 ± 2.7 um/sec
Clumps [37]: Fewer
F1 [37]: 95%
Static [37]: 5%
VCL ± SEM [37]: 25.4 ± 2.6 um/sec
Clumps [38]: Few
F1 [38]: 10%
F3+F4 [38]: 85%
Static [38]: 5%
VCL ± SEM [38]: 87.3 ± 6.2 um/sec
Clumps [39]: Few
F1 [39]: 35%
F3+F4 [39]: 65%
Clumps [40]: Yes
F3+F4 [40]: 10%
Static [40]: 90%
Clumps [41]: Yes
F1 [41]: 95%
F3+F4 [41]: 5%
F1 [42]: 95%
F3+F4 [42]: 5%
F3+F4 [43]: 80%
Static [43]: 20%
VCL ± SEM [43]: 109.4 ± 13.8 um/sec
sperm clumping (post-infusion): severe sperm clumping
potential contraceptive window following administration (rhesus): 24 to 48 h
time necessary for sperm velocity to recover completely (rhesus): more than 3 weeks
